Values of other authors, collected in patent US6921530B1, “Low dose IL-2 for potentiation of immunity” (Cornell Research Foundation, Inc., priority 1999, dated 2005).
“And” between values parts separate entries of the source, which are not always exact repeats. Equal entries are not always repeated.

Tested on: HCV
Settings: cited from earlier work

Substance: Interferon-α [IFN-α]
- sustained response, % of patients (3×10^6 units s.c. three times a week over one year, monotherapy): 35% and 28-43%
- initial delay before decline of plasma HCV viral load (daily IFN therapy): 9 h
